Source: patent US5672715A, “Herbicidal substituted 3-aryl-pyrazoles” (Monsanto Company, priority 1995, dated 1997)

Tests used:
Type in all cases: in vivo
Barnyardgrass [1] = assay: pre-emergence herbicide test; conditions: Echinochloa crus-galli, pre-emergence, 0.25 lb/A; read-out: % plant inhibition
In short: (§1)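 Known amounts of active ingredient went into the cover soil over seeds sown in pans, either before or after the layer was spread. An initial 1/4 inch overhead irrigation was given in some cases; otherwise pans were subirrigated. Rating was % inhibition at ~14 days.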

Bedstraw Catchweed [2] = assay: pre-emergence herbicide test; conditions: Galium aparine, pre-emergence, 0.25 lb/A; read-out: % plant inhibition
In short: as §1

Birdseye Speedwell [3] = assay: pre-emergence herbicide test; conditions: pre-emergence, 0.25 lb/A; read-out: % plant inhibition
In short: as §1

Blackgrass [4] = assay: pre-emergence herbicide test; conditions: Alopecurus myosuroides, pre-emergence, 0.25 lb/A; read-out: % plant inhibition
In short: as §1

Cocklebur [5] = assay: pre-emergence herbicide test; conditions: Xanthium strumarium, pre-emergence, 0.25 lb/A; read-out: % plant inhibition
In short: as §1

Common Chickweed [6] = assay: pre-emergence herbicide test; conditions: pre-emergence, 0.25 lb/A; read-out: % plant inhibition
In short: as §1

Corn [7] = assay: pre-emergence herbicide test; conditions: Zea mays, pre-emergence, 0.25 lb/A; read-out: % plant inhibition
In short: as §1

Downy Brome [8] = assay: pre-emergence herbicide test; conditions: Bromus tectorum, pre-emergence, 0.25 lb/A; read-out: % plant inhibition
In short: as §1

Giant Foxtail [9] = assay: pre-emergence herbicide test; conditions: Setaria faberi, pre-emergence, 0.25 lb/A; read-out: % plant inhibition
In short: as §1

Green Foxtail [10] = assay: pre-emergence herbicide test; conditions: Setaria viridis, pre-emergence; 0.25 lb/A; read-out: % plant inhibition
In short: as §1

Morning Glory [11] = assay: pre-emergence herbicide test; conditions: Ipomoea, pre-emergence, 0.25 lb/A; read-out: % plant inhibition
In short: as §1

Rape [12] = assay: pre-emergence herbicide test; conditions: pre-emergence, 0.25 lb/A; read-out: % plant inhibition
In short: as §1

Seedling Johnsongrass [13] = assay: pre-emergence herbicide test; conditions: Sorghum halepense, pre-emergence, 0.25 lb/A; read-out: % plant inhibition
In short: as §1

Soybean [14] = assay: pre-emergence herbicide test; conditions: Glycine max, pre-emergence, 0.25 lb/A; read-out: % plant inhibition
In short: as §1

Velvetleaf [15] = assay: pre-emergence herbicide test; conditions: Abutilon theophrasti, pre-emergence, 0.25 lb/A; read-out: % plant inhibition
In short: as §1

Wheat [16] = assay: pre-emergence herbicide test; conditions: Triticum aestivum, pre-emergence, 0.25 lb/A; read-out: % plant inhibition
In short: as §1

Wild Oats [17] = assay: pre-emergence herbicide test; conditions: Avena fatua, pre-emergence, 0.25 lb/A; read-out: % plant inhibition
In short: as §1

Barnyardgrass [18] = assay: post-emergence herbicide test; conditions: Echinochloa crus-galli, post-emergence, 0.25 lb/A; read-out: % plant inhibition
In short: (§2)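 Plants grown in greenhouse soil pans for two to three weeks were sprayed with compound in about 0.4% v/v emulsifier at 170.3 kPa and 1870 L/Ha, at the stated application rates. Activity was scored as percent inhibition of each species.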

Bedstraw Catchweed [19] = assay: post-emergence herbicide test; conditions: Galium aparine, post-emergence, 0.25 lb/A; read-out: % plant inhibition
In short: as §2

Birdseye Speedwell [20] = assay: post-emergence herbicide test; conditions: post-emergence, 0.25 lb/A; read-out: % plant inhibition
In short: as §2

Blackgrass [21] = assay: post-emergence herbicide test; conditions: Alopecurus myosuroides, post-emergence, 0.25 lb/A; read-out: % plant inhibition
In short: as §2

Cocklebur [22] = assay: post-emergence herbicide test; conditions: Xanthium strumarium, post-emergence, 0.25 lb/A; read-out: % plant inhibition
In short: as §2

Common Chickweed [23] = assay: post-emergence herbicide test; conditions: post-emergence, 0.25 lb/A; read-out: % plant inhibition
In short: as §2

Corn [24] = assay: post-emergence herbicide test; conditions: Zea mays, post-emergence, 0.25 lb/A; read-out: % plant inhibition
In short: as §2

Downy Brome [25] = assay: post-emergence herbicide test; conditions: Bromus tectorum, post-emergence, 0.25 lb/A; read-out: % plant inhibition
In short: as §2

Giant Foxtail [26] = assay: post-emergence herbicide test; conditions: Setaria faberi, post-emergence, 0.25 lb/A; read-out: % plant inhibition
In short: as §2

Green Foxtail [27] = assay: post-emergence herbicide test; conditions: Setaria viridis, post-emergence, 0.25 lb/A; read-out: % plant inhibition
In short: as §2

Morning Glory [28] = assay: post-emergence herbicide test; conditions: Ipomoea, post-emergence, 0.25 lb/A; read-out: % plant inhibition
In short: as §2

Rape [29] = assay: post-emergence herbicide test; conditions: post-emergence, 0.25 lb/A; read-out: % plant inhibition
In short: as §2

Seedling Johnsongrass [30] = assay: post-emergence herbicide test; conditions: Sorghum halepense, post-emergence, 0.25 lb/A; read-out: % plant inhibition
In short: as §2

Soybean [31] = assay: post-emergence herbicide test; conditions: Glycine max, post-emergence, 0.25 lb/A; read-out: % plant inhibition
In short: as §2

Velvetleaf [32] = assay: post-emergence herbicide test; conditions: Abutilon theophrasti, post-emergence, 0.25 lb/A; read-out: % plant inhibition
In short: as §2

Wheat [33] = assay: post-emergence herbicide test; conditions: Triticum aestivum, post-emergence, 0.25 lb/A; read-out: % plant inhibition
In short: as §2

Wild Oats [34] = assay: post-emergence herbicide test; conditions: Avena fatua, post-emergence, 0.25 lb/A; read-out: % plant inhibition
In short: as §2

In the case of `CC(=O)CCCOC(=O)c1cc(-c2nn(C)c(C(F)(F)F)c2C)c(F)cc1Cl` [Compound 53], the inhibition at 280.212 g/ha (Barnyardgrass [1]) is reported as 85%, the inhibition at 280.212 g/ha (Bedstraw Catchweed [2]) is reported as 50% and the inhibition at 280.212 g/ha (Birdseye Speedwell [3]) is reported as 70%. It also gave an inhibition at 280.212 g/ha (Blackgrass [4]) of 15%, an inhibition at 280.212 g/ha (Cocklebur [5]) of 15% and an inhibition at 280.212 g/ha (Common Chickweed [6]) of 40%. It also gave an inhibition at 280.212 g/ha (Corn [7]) of 5%, an inhibition at 280.212 g/ha (Downy Brome [8]) of 15% and an inhibition at 280.212 g/ha (Giant Foxtail [9]) of 9%. It also gave an inhibition at 280.212 g/ha (Green Foxtail [10]) of 100%, an inhibition at 280.212 g/ha (Morning Glory [11]) of 80% and an inhibition at 280.212 g/ha (Rape [12]) of 5%. It also gave an inhibition at 280.212 g/ha (Seedling Johnsongrass [13]) of 75%, an inhibition at 280.212 g/ha (Soybean [14]) of 0% and an inhibition at 280.212 g/ha (Velvetleaf [15]) of 85%. It also gave an inhibition at 280.212 g/ha (Wheat [16]) of 0%, an inhibition at 280.212 g/ha (Wild Oats [17]) of 5% and an inhibition at 280.212 g/ha (Barnyardgrass [18]) of 70%. The inhibition at 280.212 g/ha (Bedstraw Catchweed [19]) was 95%, the inhibition at 280.212 g/ha (Birdseye Speedwell [20]) was 95% and the inhibition at 280.212 g/ha (Blackgrass [21]) was 25%. It also gave an inhibition at 280.212 g/ha (Cocklebur [22]) of 100%, an inhibition at 280.212 g/ha (Common Chickweed [23]) of 90% and an inhibition at 280.212 g/ha (Corn [24]) of 7%. It also gave an inhibition at 280.212 g/ha (Downy Brome [25]) of 45%, an inhibition at 280.212 g/ha (Giant Foxtail [26]) of 75% and an inhibition at 280.212 g/ha (Green Foxtail [27]) of 80%. It also gave an inhibition at 280.212 g/ha (Morning Glory [28]) of 99%, an inhibition at 280.212 g/ha (Rape [29]) of 98% and an inhibition at 280.212 g/ha (Seedling Johnsongrass [30]) of 75%. The inhibition at 280.212 g/ha (Soybean [31]) was 75%, the inhibition at 280.212 g/ha (Velvetleaf [32]) was 100% and the inhibition at 280.212 g/ha (Wheat [33]) was 16%. It also gave an inhibition at 280.212 g/ha (Wild Oats [34]) of 40%.
Molecule `C=CCOC(=O)c1cc(-c2nn(C)c(C(F)(F)F)c2C)c(F)cc1Cl` [Compound 54] has an inhibition at 280.212 g/ha (Barnyardgrass [1]) of 100%, an inhibition at 280.212 g/ha (Bedstraw Catchweed [2]) of 80% and an inhibition at 280.212 g/ha (Birdseye Speedwell [3]) of 98%. The inhibition at 280.212 g/ha (Blackgrass [4]) was 35%, the inhibition at 280.212 g/ha (Cocklebur [5]) was 35% and the inhibition at 280.212 g/ha (Common Chickweed [6]) was 90%. For the same molecule, the inhibition at 280.212 g/ha (Corn [7]) was 10%, the inhibition at 280.212 g/ha (Downy Brome [8]) was 75% and the inhibition at 280.212 g/ha (Giant Foxtail [9]) was 99%. It also gave an inhibition at 280.212 g/ha (Green Foxtail [10]) of 100%, an inhibition at 280.212 g/ha (Morning Glory [11]) of 40% and an inhibition at 280.212 g/ha (Rape [12]) of 0%. The inhibition at 280.212 g/ha (Seedling Johnsongrass [13]) was 99%, the inhibition at 280.212 g/ha (Soybean [14]) was 5% and the inhibition at 280.212 g/ha (Velvetleaf [15]) was 100%. It also gave an inhibition at 280.212 g/ha (Wheat [16]) of 5%, an inhibition at 280.212 g/ha (Wild Oats [17]) of 30% and an inhibition at 280.212 g/ha (Barnyardgrass [18]) of 95%. The inhibition at 280.212 g/ha (Bedstraw Catchweed [19]) was 98%, the inhibition at 280.212 g/ha (Birdseye Speedwell [20]) was 100% and the inhibition at 280.212 g/ha (Blackgrass [21]) was 30%. It also gave an inhibition at 280.212 g/ha (Cocklebur [22]) of 99%, an inhibition at 280.212 g/ha (Common Chickweed [23]) of 90% and an inhibition at 280.212 g/ha (Corn [24]) of 35%. For the same molecule, the inhibition at 280.212 g/ha (Downy Brome [25]) was 70%, the inhibition at 280.212 g/ha (Giant Foxtail [26]) was 90% and the inhibition at 280.212 g/ha (Green Foxtail [27]) was 98%. It also gave an inhibition at 280.212 g/ha (Morning Glory [28]) of 80%, an inhibition at 280.212 g/ha (Rape [29]) of 75% and an inhibition at 280.212 g/ha (Seedling Johnsongrass [30]) of 90%. For the same molecule, the inhibition at 280.212 g/ha (Soybean [31]) was 80%, the inhibition at 280.212 g/ha (Velvetleaf [32]) was 100% and the inhibition at 280.212 g/ha (Wheat [33]) was 16%. The inhibition at 280.212 g/ha (Wild Oats [34]) was 80%.
